Literature values as cited in US20250213572A1, “TYK2 INHIBITORS AND USES THEREOF” (Takeda Pharmaceutical Company Limited, priority 2022, published 2025).

Tests used:
psoriasis = settings: dose ranges used in the Phase 3 trials; cited from earlier work
[1] = system: moderate-to-severe ulcerative colitis; settings: 6 mg once-daily; cited from earlier work
[2] = system: moderate-to-severe psoriasis; settings: 30 mg twice-daily; at four weeks; cited from earlier work

Row | Molecule | increase of responses at 12 weeks compared to four weeks (psoriasis) | primary endpoint of clinical remission at 12 weeks [1] | mean PASI reduction [2] [%]
1 | guselkumab: an anti-IL-23 monoclonal antibody | three- to four-fold | – | –
2 | deucravacitinib [reference compound] | three- to four-fold | did not achieve its primary endpoint of clinical remission at 12 weeks | –
3 | CCOc1cc([C@@H](CS(C)(=O)=O)N2C(=O)c3cccc(NC(C)=O)c3C2=O)ccc1OC [Otezla®] | – | – | 37
